31 compounds from ChEMBL document CHEMBL1201862, “PubChem BioAssay data set” (2004) can be followed below.

A short description of test [1]: microbe, parasite or virus in culture. The test is classed as functional. Particulars: Mycobacterium tuberculosis.
Test [2] addresses T1, Protein skinhead-1 (Caenorhabditis elegans, UniProt P34707).
T1 sequence (P34707 whole entry): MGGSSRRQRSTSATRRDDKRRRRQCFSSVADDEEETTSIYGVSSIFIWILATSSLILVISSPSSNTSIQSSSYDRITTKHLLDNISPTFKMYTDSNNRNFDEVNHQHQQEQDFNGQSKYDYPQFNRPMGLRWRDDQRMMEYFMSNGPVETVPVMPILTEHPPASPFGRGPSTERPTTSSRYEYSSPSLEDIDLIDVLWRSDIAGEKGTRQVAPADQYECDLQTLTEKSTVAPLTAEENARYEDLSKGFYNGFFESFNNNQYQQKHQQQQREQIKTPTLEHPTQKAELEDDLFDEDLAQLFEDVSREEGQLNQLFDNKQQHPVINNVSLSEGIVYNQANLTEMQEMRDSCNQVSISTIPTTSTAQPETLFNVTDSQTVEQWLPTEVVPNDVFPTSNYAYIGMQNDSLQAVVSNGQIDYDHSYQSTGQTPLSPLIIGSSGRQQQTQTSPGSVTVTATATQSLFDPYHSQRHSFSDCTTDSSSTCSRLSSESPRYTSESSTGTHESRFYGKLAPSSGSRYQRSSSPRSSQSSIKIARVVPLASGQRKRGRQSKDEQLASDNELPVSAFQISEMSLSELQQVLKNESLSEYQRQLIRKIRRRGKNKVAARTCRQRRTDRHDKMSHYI
The test is classed as functional.

Test [3] has as its target Large T antigen (Simian virus 40, UniProt P03070). The test is classed as functional, Betapolyomavirus macacae.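 Further: Confirmatory-stage PubChem screen for compounds that inhibit SV40 T antigen.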
A short description of test [4]: Luminescence Cell-Based Dose Confirmation HTS to Identify Activators of 5'UTR Stem-Loop Driven Alpha-Synuclein mRNA Translation in H4 Neuroglioblastoma Cells. [Related pubchem assays: 1829 (Project Summary), 1814 (Primary HTS)]. The test is classed as functional.
The nature of test [5]: Luminescence Cell-Based Dose Response HTS to Identify Activators of Luciferase Translation or Activity in H4 […] Cells. [Related pubchem assays: 1829 (Project Summary), 1814 (Primary HTS)]. The test is classed as functional.
Test [6] deals with H4. As to the kind of experiment: Luminescence Cell-Based Dose Response HTS to Identify Activators of 5'UTR Stem-Loop Driven Prion Protein mRNA Translation in H4 Neuroglioblastoma Cells. [Related pubchem assays: 1829 (Project Summary), 1814 (Primary HTS)]. Particulars: Homo sapiens. Format: functional.
Test [7] deals with T2, Rac GTPase-activating protein 1 (Homo sapiens, UniProt Q9H0H5).
T2 sequence (Q9H0H5 whole entry): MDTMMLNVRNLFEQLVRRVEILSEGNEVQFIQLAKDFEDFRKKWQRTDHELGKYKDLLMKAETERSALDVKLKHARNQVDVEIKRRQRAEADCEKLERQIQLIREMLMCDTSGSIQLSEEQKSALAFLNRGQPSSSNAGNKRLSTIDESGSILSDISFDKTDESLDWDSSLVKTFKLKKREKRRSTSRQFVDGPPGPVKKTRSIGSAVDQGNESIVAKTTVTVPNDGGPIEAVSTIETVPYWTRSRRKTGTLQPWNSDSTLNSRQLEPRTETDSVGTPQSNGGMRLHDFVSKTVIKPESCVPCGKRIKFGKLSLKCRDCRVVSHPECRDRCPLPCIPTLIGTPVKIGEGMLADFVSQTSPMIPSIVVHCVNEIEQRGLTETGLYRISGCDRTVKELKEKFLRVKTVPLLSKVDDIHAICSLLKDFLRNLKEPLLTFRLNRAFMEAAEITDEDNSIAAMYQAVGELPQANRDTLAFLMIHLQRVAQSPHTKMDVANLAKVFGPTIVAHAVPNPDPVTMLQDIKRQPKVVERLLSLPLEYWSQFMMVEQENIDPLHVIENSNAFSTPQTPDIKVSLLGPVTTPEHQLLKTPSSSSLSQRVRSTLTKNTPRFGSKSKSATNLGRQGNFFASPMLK
The test is described as follows: MgcRacGAP GTPase-activating activity inhibitors, confirmation, biochemical, ADP Hunter fluorescence, primary and confirmatory (AID 624330). The test is classed as functional.

Test [8] in a line: Luminescence Cell-Based Dose Retest to Confirm Inhibitors of Cancer Stem Cells. [Related pubchem assays (depositor defined):AID2717, AID2721]. Format: functional. To be noted: Homo sapiens.
In test [9] the target is FAD-linked sulfhydryl oxidase ALR (Homo sapiens, UniProt P55789). As to the kind of experiment: inhibitors of human ALR sulfhydryl oxidase, dose response, biochemical, H2O2 detection, luminescence, cherry-pick (AID 493248).

Molecules are shown by their SMILES. Active and inactive are the calls of the source. Where only a bound is given, the exact number is not on record here.

Chain of Large T antigen (P03070 whole entry): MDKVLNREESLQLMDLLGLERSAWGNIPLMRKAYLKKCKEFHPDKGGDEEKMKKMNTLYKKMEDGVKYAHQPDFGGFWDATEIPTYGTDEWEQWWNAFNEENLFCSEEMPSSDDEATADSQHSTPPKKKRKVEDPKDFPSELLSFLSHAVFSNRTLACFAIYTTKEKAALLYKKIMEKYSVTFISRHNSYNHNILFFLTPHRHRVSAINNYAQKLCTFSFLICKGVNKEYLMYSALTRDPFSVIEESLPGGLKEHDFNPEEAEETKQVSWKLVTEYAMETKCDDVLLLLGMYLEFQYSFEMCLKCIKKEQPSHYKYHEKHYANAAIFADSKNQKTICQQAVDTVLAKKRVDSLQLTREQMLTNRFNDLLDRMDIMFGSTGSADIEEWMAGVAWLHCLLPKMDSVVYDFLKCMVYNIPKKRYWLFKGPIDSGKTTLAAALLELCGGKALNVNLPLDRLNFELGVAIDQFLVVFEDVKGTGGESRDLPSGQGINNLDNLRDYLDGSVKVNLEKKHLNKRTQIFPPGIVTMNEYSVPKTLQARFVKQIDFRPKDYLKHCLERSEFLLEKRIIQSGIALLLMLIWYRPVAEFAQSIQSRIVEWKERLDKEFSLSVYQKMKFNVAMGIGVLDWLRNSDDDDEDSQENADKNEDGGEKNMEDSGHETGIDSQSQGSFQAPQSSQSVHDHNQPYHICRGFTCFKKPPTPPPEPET
Chain of FAD-linked sulfhydryl oxidase ALR (P55789 whole entry): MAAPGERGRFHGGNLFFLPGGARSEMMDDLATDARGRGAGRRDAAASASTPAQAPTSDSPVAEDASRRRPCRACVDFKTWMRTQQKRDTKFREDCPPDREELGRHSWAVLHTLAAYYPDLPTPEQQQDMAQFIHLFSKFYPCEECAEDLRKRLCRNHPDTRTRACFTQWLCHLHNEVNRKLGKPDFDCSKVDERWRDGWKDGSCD

In the case of `O=C(c1ccccc1)c1ccc(OCCOCCN2CCN(Cc3ccccc3)CC2)cc1`, the CC50 in test [1] was > 40 µM (active).

As a reminder, the IC50 is the concentration needed to halve the response being measured. For the compound `Cc1cnc(C(=O)N(CCCn2ccnc2)C2C(=O)Nc3ccccc3N=C2c2ccccc2)cn1` (centres undefined), the IC50 in test [2] was > 100 µM (inactive).

On to `CCN1CCN(c2ncnc3c2c(-c2ccccc2)cn3-c2ccc(F)cc2)CC1`, for which the IC50 in test [2] was 12.6 µM (active). Same read-out and setting: the figure for `COc1ccc(CN2CCN(Cc3ccco3)CC2)cc1` is > 100 µM (inactive).

In the case of `COc1cc(/C=N/N=C2/C(=O)Nc3ccccc32)ccc1O`, in [3], the IC50 was 8.73 µM (active). One may read the EC50 as the concentration at which the effect is half-maximal. For the compound `COc1ccc(OS(=O)(=O)Cc2ccccc2)cc1`, the EC50 is > 120 µM (not active) in test [4], 10.8 µM (active) in test [5] and 57.5 µM (active) in [6].

As for `Cc1ccccc1-c1nc(C[S+]([O-])CC(=O)NCc2ccc3c(c2)OCO3)c(C)o1` (centres undefined), the IC50 in test [2] was > 100 µM (inactive). For the compound `Cc1cc(C)n2nc(/C(C#N)=C/c3ccccn3)c(C#N)c2n1`, the CC50 in test [1] is > 40 µM (active). Consider `CCOc1ccc(OCCC(=O)OCC(=O)N2CCN(S(=O)(=O)c3ccc(C)cc3)CC2)cc1`, for which, in test [3], the IC50 is 11.1 µM (active). As for `Cc1ccc(NC(=O)C2=C(O)c3sccc3N(C)S2(=O)=O)cc1`, the results for the 50% effective concentration (EC50) in [4], in test [5] and in test [6] were 13.2 µM (active), 27.2 µM (active) and > 120 µM (not active), respectively.

Consider `CC(C)(C)c1ccc(-c2nc3nc(O)cc(NC(=O)c4ccco4)n3n2)cc1`, for which the CC50 in [1] is > 40 µM (active). In the case of `O=C(Oc1ccc(N(C(=O)c2ccncc2)S(=O)(=O)c2cccs2)cc1)c1ccncc1`, in test [7], the IC50 was 86 µM (active). With `COc1cc(-c2nc3ccccn3c2/N=C/c2cc(OC)c(O)cc2Cl)ccc1O`, in test [7], the IC50 is 69.7 µM (active). The AC50 is the midpoint of the concentration-response curve, whichever way the signal moves. With `O=C(CCOc1ccccc1)N1CCN(c2ccc(O)cc2)CC1`, the IC50 in [3] was 4.19 µM (active). Besides, the AC50 in test [8] was 11.3 µM (active). Turning to `O=c1c(-c2cnn(-c3ccccc3)c2)coc2cc(O)ccc12`, in [1], the CC50 is > 40 µM (active). As for `c1csc(-c2cn3ccc4ccccc4c3n2)c1`, the EC50 in test [5] was 26 µM (active); in [6], 0.106 µM (active). Moreover, the IC50 in [2] was 33.6 µM (active). With `Nc1nc2c(C(=O)N3CCOCC3)nnn2c2ccccc12`, the values for the concentration for a half-maximal effect (EC50) in [4], in [5] and in [6] were 0.138 µM (active), 0.203 µM (active) and 26.9 µM (active), respectively. Take `C/C(CC(=O)Nc1ccc(N(C)C)cc1)=N\NC(=O)c1ccc(F)cc1`: in [7], the IC50 is 47.4 µM (active).

Turning to `CCOc1cc(/C=C/c2cc(C(F)(F)F)nc(O)n2)ccc1O`, in test [3], the IC50 was 13 µM (active). With `CN(C)S(=O)(=O)c1cc(NC(=O)CNCCN2CCOCC2)ccc1Cl`, the IC50 in test [7] was 154 µM (active). Turning to `Cc1cc(N2CCOCC2)nc2cc(O)ccc12`, the figures for the EC50 in [4], in test [5] and in test [6] were 16.2 µM (active), 6.94 µM (active) and > 120 µM (not active), respectively.

Regarding `Fc1ccc(-c2nc(-c3cccs3)no2)cc1`, the IC50 in test [2] is > 100 µM (inactive). On to `COc1cc(/C=N/NC(=O)CC(=O)NC2CCCCC2)ccc1O`, for which the concentration at half-maximal activity (AC50) in [9] was 0.175 µM (active). Besides, the IC50 in test [7] is 51.6 µM (active). Turning to `Cc1cc(-n2c(C)cc(C(=O)COc3ccccc3[N+](=O)[O-])c2C)no1`, the EC50 was 13.5 µM (active) in [4], 44.9 µM (active) in test [5] and > 120 µM (not active) in test [6]. In the case of `COc1ccccc1/C=C/C(=O)N1CCC(c2ccccc2)C1` (centres undefined), the EC50 was 9.44 µM (active) in test [4], 27.8 µM (active) in [5] and 23.1 µM (active) in test [6]. For the compound `COc1cc(CCC(=O)OCC(=O)Nc2ccc(F)cc2F)cc(OC)c1OC`, the IC50 in test [2] is > 100 µM (inactive). Turning to `COc1ccc(O)c(C(=O)c2cnn(-c3ccccn3)c2)c1`, the EC50 is 15.4 µM (active) in [4], 43.5 µM (active) in test [5] and 9.17 µM (active) in test [6]. Regarding `Cc1ccc2nc3c(cc(C(=O)NCc4ccco4)c(=N)n3Cc3ccco3)c(=O)n2c1`, the CC50 in test [1] is 23.8 µM (active). With `CN(C)S(=O)(=O)c1cccc(NC(=O)CNCC2CCCCC2)c1`, the concentration for half-maximal inhibition (IC50) in [7] was 115 µM (active). As to `OC(CN1CCN(c2ccccn2)CC1)Cn1c2ccccc2c2ccccc21` (centres undefined), the CC50 in test [1] was > 40 µM (active). In the case of `O=C(CN1C(=O)NC2(CCCC2)C1=O)Nc1cc(S(=O)(=O)N2CCOCC2)ccc1OCC(F)(F)F`, in test [2], the IC50 is > 100 µM (inactive).
